Measurements from patent US9956291B2, “Nanoformulation and methods of use of thyroid receptor beta1 agonists for liver targeting” (priority 2012, dated 2018).

Legend:
LDLR [1] = assay: Test for LDLR up-regulation in transfected HEK-293 cells; format: cell-based, human
Experimental: (§1) The expression vector of human LDLR was constructed under the control of the cytomegalovirus promoter-enhancer (pCMV-LDLR). These constructs were used to transiently transfect mammalian cells, and cells were subjected to SDS-PAGE and immunoblot analysis using an LDLR antibody. […] Using this assay, compounds were tested for their ability to reduce the degradation of the LDLR. HEK-293 cells grown in 96-well plates overnight and transfected with LDLR were used. Compounds dissolved in DMSO or vehicle were added to the culture media, and incubated for 24-48 hours. The cells were then lysed. Both cell lysate and supernatant are subjected to quantitation using the above immunoassay. Compounds that increase the up-regulation of LDLR were selected. A similar assay was implemented using the HepG2 cells, since these cells express the LDLR endogenously.

LDLR [2] = assay: Test for LDLR up-regulation in HepG2 cells (endogenous LDLR); format: cell-based, human
Experimental: as §1

high fat diet mice = assay: Nutritionally-induced hypercholesterolemia model (high fat diet mice); format: in vivo
Experimental: Mice were fed a high fat diet (TD.06414, Harlan Research Diet, Inc., Indianapolis, Ind.) that provides […] from fat sources increased total cholesterol. […] Male C57BL/6 mice were fed either a commercial chow diet (Prolab RMH 3000, PMI feeds, St. Louis, Mo.) to serve as a negative control, or a high fat diet (TD.06414). Plasma was collected once weekly to monitor the level of LDL-C, total cholesterol, HDL-C, and triglyceride. […] One group was treated with vehicle, and the other groups are treated with TRβ1 agonist compounds versus its Nano-targeted ones at different doses.
High-fat diet (HFD)-induced dyslipidemia in mice. FIG. 12 depicts dose-ranging of Chitosan-PLGA NP-encapsulated GC-1 and conjugated with Glycyrrhetinic acid versus un-encapsulated GC-1 for lowering total cholesterol in HFD mice, in accordance with embodiments of the present invention.

[3] = cited from earlier work
[4] = in vivo; cited from earlier work
cartilage = settings: dogs, up to 12 months; cited from earlier work
[5] = moderately overweight and hypercholesterolemic subjects, two weeks

Row | SMILES | LDLR up-regulation (LDLR [1]) | LDLR up-regulation (LDLR [2]) | dose of maximum effect on total cholesterol (toward normal regular diet levels) (high fat diet mice; IP daily, week 1 and week 2) | lowering of total cholesterol (high fat diet mice; IP daily, week 1 and week 2, dose-ranging) | lowering serum cholesterol and triglyceride ([3]; Phase I clinical trial) | serum cholesterol and triglyceride [4] | reduction of serum total cholesterol (high fat diet mice; 0.1 mg/Kg daily for 6 days) | effects on the heart [3, 5] | serum total and LDL cholesterol, apoB levels [3, 5] | cartilage damage (cartilage)
1 | Cc1cc(OCC(=O)O)cc(C)c1Cc1ccc(O)c(C(C)C)c1 [GC-1] | None of the TR beta agonists including GC-1, KB-2115 or their nanoformulations resulted in any significant changes | None of the TR beta agonists including GC-1, KB-2115 or their nanoformulations resulted in any significant changes | 1.0 mg/kg | dose-dependent lowering of total cholesterol | effective in lowering serum cholesterol and triglyceride | lower serum cholesterol and triglyceride |  |  |  | 
2 | CC(C)c1cc(Oc2c(Br)cc(NC(=O)CC(=O)O)cc2Br)ccc1O [KB-2115] | None of the TR beta agonists including GC-1, KB-2115 or their nanoformulations resulted in any significant changes | None of the TR beta agonists including GC-1, KB-2115 or their nanoformulations resulted in any significant changes |  |  |  | lower serum cholesterol and triglyceride | 60-80% | without detectable effects on the heart | reduced | Cartilage damage was observed
